Laboratory results reported in patent US8393321B2, “Drug delivery system for conscious sedation” (Piramal Critical Care, Inc., priority 2001, dated 2013).
Where two headings read alike, the source gives them in different places.

Legend:
[1] = test system: patients; settings: in 100% oxygen for middle-aged men, cited from earlier work
[2] = test system: patients; experiment: Conscious sedation (CS) level, MAC equivalent of 70% nitrous oxide; type: in vivo, human
Procedure: The concentration of oxygen in the atmosphere approximates 21%. […] The most common ratio is 70% N2O/30% oxygen, although some delivery systems maintain 50% oxygen.
The potency of anesthetic agents is measured by the minimum alveolar concentration of an anesthetic producing immobility in 50% of patients, defined as 39 year old males, undergoing surgical incision (“MAC”). […] In present inhalant conscious sedation systems, nitrous oxide is delivered in conjunction with a minimum of 30% oxygen to insure the patient maintains a sufficient level of oxygen. […] For this description a MAC equivalent of 70% nitrous oxide will be used for comparison with other inhalants, as shown in Table 2.

[3] = test system: patient; settings: conscious sedation; cited from earlier work
[4] = soda lime (calcium hydroxide) and/or UV light; cited from earlier work
[5] = test system: patients; settings: N2O with oxygen; cited from earlier work

SMILES: FC(F)OC(F)(F)C(F)Cl (stereo not shown) [Enflurane]
- MAC [1]: 1.68%
- Implied CS Level ([2]; in vivo): 1.07%

SMILES: CN1C(=O)CN=C(c2ccccc2)c2cc(Cl)ccc21 [IV Diazepam, Diazepam]
- Abuse Potential [3]: Controlled
- Safety Profile [3]: Moderate

SMILES: FC(F)(F)C(Cl)Br (stereo not shown) [Halothane]
- decomposition in presence of soda lime and/or UV light [4]: decompose
- MAC [1]: 0.75%
- Implied CS Level ([2]; in vivo): 0.48%

SMILES: [N-]=[N+]=O [Nitrous Oxide]
- MAC [1]: 110.00%
- MAC ([1]; listed as nitrous oxide): 110%
- Abuse Potential [3]: Recre-
- Safety Profile [3]: Teratogenic
- mixture concentration at which conscious sedation occurs in most patients [5]: 70%
- Implied CS Level ([2]; in vivo): 70.00%
- MAC Equivalent ([2]; in vivo): .636
- Minimum Alveolar Content (MAC) of 70% N2O/30% oxygen mixture ([2]; in vivo): 0.636 MAC

SMILES: COC(F)(F)C(Cl)Cl [Methoxyflurane]
- decomposition in presence of soda lime and/or UV light [4]: decompose
- MAC [1]: 0.16%
- MAC ([1]; listed as methoxyflurane): 0.16%
- Implied CS Level ([2]; MAC equivalent of 70% nitrous oxide (.636)): 0.11%

SMILES: FCOC(C(F)(F)F)C(F)(F)F [Sevoflurane]
- decomposition in presence of soda lime and/or UV light [4]: decompose
- MAC [1]: 2.00%
- Implied CS Level ([2]; in vivo): 1.27%

SMILES: Cc1ncc2n1-c1ccc(Cl)cc1C(c1ccccc1F)=NC2 [IV Midazolam, Midazolam]
- Abuse Potential [3]: Controlled
- Safety Profile [3]: Moderate

SMILES: FC(F)OC(F)C(F)(F)F (stereo not shown) [Desflurane]
- MAC [1]: 6.00%
- Implied CS Level ([2]; in vivo): 3.82%

SMILES: FC(F)OC(Cl)C(F)(F)F (stereo not shown) [Isoflurane]
- MAC [1]: 1.15%
- Implied CS Level ([2]; in vivo): 0.73%
